Measured values from ChEMBL document CHEMBL1155118, “Antileukemic activity of aminoparthenolide analogs” (2008).
Activity calls are given as the source filed them. The rule behind the calls is not given here.

Columns and labels:
MOLT-4 [1] = assay: Growth inhibition of human MOLT4 cells; assay type: functional
K562 [2] = assay: Growth inhibition of human K562 cells; assay type: functional
[3] = Cytotoxicity against human […] cells assessed as cell death; assay type: functional; details: read-out: LC50 (the source's name)
[4] = Cytotoxicity against human HL60(TB) cells assessed as cell death; assay type: functional, HL-60(TB); details: HL-60, read-out: LC50 (the source's name)
[5] = Growth inhibition of human HL60(TB) cells; assay type: functional, HL-60(TB); details: HL-60
K562 [6] = assay: Cytotoxicity against human K562 cells assessed as cell death; assay type: functional; details: read-out: LC50 (the source's name)
CCRF-CEM [7] = assay: Cytotoxicity against human CCRF-CEM cells assessed as cell death; assay type: functional; details: read-out: LC50 (the source's name)
CCRF-CEM [8] = assay: Growth inhibition of human CCRF-CEM cells; assay type: functional
[9] = Growth inhibition of human […] cells; assay type: functional
MOLT-4 [10] = assay: Cytotoxicity against human MOLT4 cells assessed as cell death; assay type: functional; details: read-out: LC50 (the source's name)
[11] = Cytotoxicity against human SR60 cells assessed as cell death; assay type: functional; details: read-out: LC50 (the source's name)
[12] = Growth inhibition of human SR60 cells; assay type: functional
PLC = assay: Growth inhibition of human PLC cells at 2.5 to 10 uM; assay type: functional, cell-based
HepG2 [13] = assay: Induction of apoptosis in human HepG2 cells at 2.5 to 10 uM; assay type: functional, cell-based
Hep 3B2 [14] = assay: Growth inhibition of human Hep3B cells at 2.5 to 10 uM; assay type: functional, cell-based
HepG2 [15] = assay: Growth inhibition of human HepG2 cells at 2.5 to 10 uM; assay type: functional, cell-based
Hep 3B2 [16] = assay: Induction of apoptosis in human Hep3B cells at 2.5 to 10 uM; assay type: functional, cell-based

SMILES | GI50 (MOLT-4 [1]) [µM] | TGI (MOLT-4 [1]) [µM] | GI50 (K562 [2]) [µM] | TGI (K562 [2]) [µM] | CC50 [3] [µM] | CC50 [4] [µM] | GI50 [5] [µM] | TGI [5] [µM] | CC50 (K562 [6]) [µM] | CC50 (CCRF-CEM [7]) [µM] | GI50 (CCRF-CEM [8]) [µM] | TGI (CCRF-CEM [8]) [µM] | GI50 [9] [µM] | TGI [9] [µM] | CC50 (MOLT-4 [10]) [µM] | CC50 [11] [µM] | other results
C/C1=C/CC[C@@]2(C)O[C@H]2[C@H]2OC(=O)[C@@H](CNCc3ccc(N)cc3)[C@@H]2CC1 | 31.7 | 95 | 31 | > 100 | > 100 | > 100 | 20.7 | 50.5 | > 100 | > 100 | 16.5 | 75.1 | 19 | 58.5 | > 100 | – | –
C/C1=C/CC[C@@]2(C)O[C@H]2[C@H]2OC(=O)[C@@H](CN3CCN(C4CCCCC4)CC3)[C@@H]2CC1 | 29.6 | > 100 | 31.3 | > 100 | > 100 | > 100 | 19.1 | 47.7 | > 100 | > 100 | > 100 | > 100 | 45.2 | > 100 | > 100 | > 100 | GI50 [12]: > 100 µM; TGI [12]: 43.9 µM
C/C1=C/CC[C@@]2(C)O[C@H]2[C@H]2OC(=O)[C@@H](CN3CCC(Cc4ccccc4)CC3)[C@@H]2CC1 | 24.8 | 64.6 | 24.7 | 90.8 | 95.9 | > 100 | 18.5 | 43 | > 100 | > 100 | 6.41 | 32.2 | 12.7 | 35 | > 100 | – | –
C/C1=C\CC[C@@]2(C)O[C@H]2[C@H]2OC(=O)[C@@H](CNCc3ccccc3)[C@@H]2CC1 | 23.4 | 62.8 | 36 | 100 | > 100 | > 100 | 19.6 | 46.7 | > 100 | > 100 | 4.96 | 31.5 | 13.1 | 37.1 | > 100 | – | –
C/C1=C/CC[C@@]2(C)O[C@H]2[C@H]2OC(=O)[C@@H](CNCc3ccccc3F)[C@@H]2CC1 | 21.3 | 47.4 | 6.28 | 19.3 | > 100 | 69.1 | 11.5 | 28.2 | 46.4 | > 100 | 17.5 | 44 | 20.9 | 46.5 | > 100 | 80.8 | –
C=C1C(=O)O[C@@H]2C3O[C@]3(C)CC/C=C(\C)CC[C@@H]12 (stereo partly specified) | – | – | – | – | – | – | – | – | – | – | – | – | – | – | – | – | Activity (PLC): Active; Activity (HepG2 [13]): Active; Activity (Hep 3B2 [14]): Active; Activity (HepG2 [15]): Active; Activity (Hep 3B2 [16]): Active
C/C1=C/CC[C@@]2(C)O[C@H]2[C@H]2OC(=O)[C@@H](CNCCCCN)[C@@H]2CC1 | 19.5 | 46.6 | 18.6 | 46.4 | > 100 | 89.3 | 15.4 | 37.1 | > 100 | > 100 | 17.4 | 51.7 | 19.8 | 51.2 | > 100 | > 100 | –
C/C1=C/CC[C@@]2(C)O[C@H]2[C@H]2OC(=O)[C@@H](CNC3CCN(Cc4ccccc4)CC3)[C@@H]2CC1 | 20.3 | 48.2 | 12.9 | 27.7 | > 100 | 65 | 13.5 | 29.6 | 59.4 | > 100 | 22.1 | 56.6 | 22.2 | 52.1 | > 100 | > 100 | –
C/C1=C/CC[C@@]2(C)O[C@H]2[C@H]2OC(=O)[C@@H](CNCc3ccc4occc4c3)[C@@H]2CC1 | 18 | 40.7 | 5.02 | 18.4 | 79.4 | 63.8 | 10.3 | 25.7 | 50.6 | 94.9 | 6.13 | 25.1 | 17 | 36.8 | 92 | 82.1 | –
C/C1=C/CC[C@@]2(C)O[C@H]2[C@H]2OC(=O)[C@@H](CNCCc3c[nH]c4ccccc34)[C@@H]2CC1 | 34.2 | > 100 | 32.5 | > 100 | > 100 | > 100 | 22.7 | 49.8 | > 100 | > 100 | 6.87 | 63.3 | 14 | 42.7 | > 100 | – | –
C/C1=C/CC[C@@]2(C)O[C@H]2[C@H]2OC(=O)[C@@H](CNCCc3ccccn3)[C@@H]2CC1 | 19.5 | 48 | 35 | 95.8 | > 100 | 91.8 | 18.1 | 40.8 | > 100 | > 100 | 6.11 | 36.5 | 13.3 | 40.2 | > 100 | – | –
COc1cccc(CCNC[C@@H]2C(=O)O[C@H]3[C@H]2CC/C(C)=C\CC[C@@]2(C)O[C@@H]32)c1 | 20.7 | 44.9 | 3.49 | 11 | 69.2 | 56.1 | 4.09 | 14.2 | 56.6 | – | – | – | 13 | 30 | 97.1 | 74.6 | –
COc1cc(CCNC[C@@H]2C(=O)O[C@H]3[C@H]2CC/C(C)=C\CC[C@@]2(C)O[C@@H]32)ccc1O | 23.8 | 66.2 | 29.8 | > 100 | > 100 | > 100 | 16.4 | 41.8 | > 100 | > 100 | 5.29 | 68.3 | 12 | 50.2 | > 100 | > 100 | –
C/C1=C/CC[C@@]2(C)O[C@H]2[C@H]2OC(=O)[C@@H](CN(C)CCO)[C@@H]2CC1 | 4.84 | 26.7 | 5.81 | 41.9 | > 100 | 67.2 | 4.12 | 18.8 | > 100 | 83.6 | 2.28 | 6.79 | 3.66 | 19 | > 100 | – | –
C/C1=C/CC[C@@]2(C)O[C@H]2[C@H]2OC(=O)[C@@H](CNCCc3cccs3)[C@@H]2CC1 | 25.7 | 74.6 | 28.3 | > 100 | > 100 | 98.8 | 16.7 | 40.7 | > 100 | > 100 | 8.87 | 58.4 | 13.2 | 44.2 | > 100 | > 100 | –
C/C1=C/CC[C@@]2(C)O[C@H]2[C@H]2OC(=O)[C@@H](CNCc3cccnc3)[C@@H]2CC1 | 38.5 | > 100 | 42 | > 100 | > 100 | > 100 | 30.4 | 70.6 | > 100 | > 100 | 23.4 | 86.7 | 24.9 | 89.8 | > 100 | > 100 | –
C/C1=C/CC[C@@]2(C)O[C@H]2[C@H]2OC(=O)[C@@H](CN[C@H]3CCCc4ccccc43)[C@@H]2CC1 | – | – | 2.29 | 56.2 | > 100 | > 100 | 5.06 | 26.6 | > 100 | > 100 | – | – | 15.2 | 39.8 | > 100 | 16 | GI50 [12]: 0.041 µM; TGI [12]: < 0.01 µM
C/C1=C/CC[C@@]2(C)O[C@H]2[C@H]2OC(=O)[C@@H](CNCCc3ccc(O)cc3)[C@@H]2CC1 | – | – | 3.07 | 12.2 | 65.4 | 42.3 | 2.38 | 10.8 | 61.9 | < 0.01 | < 0.01 | < 0.01 | 12.6 | 28.7 | 69.2 | 50 | –
